In PubChem BioAssay (NCI):
Values joined by “and” are separate entries in the source; they are usually repeats but may differ in a detail not shown here. Equal values may be shown once.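 Method: 48-hour compound exposure of cells in 96-well plates, five concentrations, linear interpolation of endpoints. The concentration for 50% growth inhibition is given as GI50. TGI denotes the concentration required for complete inhibition of growth.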

What was measured:
Experiment in all cases: NCI anticancer screen, dose series, 48 h
A498 renal = tested on: A498 renal
IGROV1 ovarian = tested on: IGROV1 ovarian
SNB-75 CNS = tested on: SNB-75 CNS
RPMI-8226 leukemia = tested on: RPMI-8226 leukemia
SK-MEL-5 melanoma = tested on: SK-MEL-5 melanoma
SK-MEL-28 melanoma = tested on: SK-MEL-28 melanoma
DU-145 prostate = tested on: DU-145 prostate
786-0 renal = tested on: 786-0 renal
ACHN renal = tested on: ACHN renal
OVCAR-3 ovarian = tested on: OVCAR-3 ovarian

COc1cccc2c1C(=O)c1c(O)c3c(c(O)c1C2=O)C[C@@](O)(C(=O)CO)C[C@@H]3OC1CC2C(OCN2CN2COC3C(C)OC(O[C@H]4C[C@](O)(C(=O)CO)Cc5c(O)c6c(c(O)c54)C(=O)c4c(OC)cccc4C6=O)CC32)C(C)O1 (stereo partly drawn)
GI50 (A498 renal): 0.0196 µM
TGI (A498 renal): 0.0821 µM
GI50 (IGROV1 ovarian): 0.0014 µM
TGI (IGROV1 ovarian): 0.127 µM
GI50 (SNB-75 CNS): 0.00419 µM
TGI (SNB-75 CNS): 0.0149 µM
GI50 (RPMI-8226 leukemia): 0.0017 µM
TGI (RPMI-8226 leukemia): 0.0108 µM
GI50 (SK-MEL-5 melanoma): 0.0143 µM
TGI (SK-MEL-5 melanoma): 0.0492 µM
GI50 (SK-MEL-28 melanoma): 0.016 µM
TGI (SK-MEL-28 melanoma): 0.0378 µM
GI50 (DU-145 prostate): 0.00312 µM
TGI (DU-145 prostate): > 1 µM
GI50 (786-0 renal): 0.00274 µM
TGI (786-0 renal): 0.0343 µM
GI50 (ACHN renal): 0.00194 µM
TGI (ACHN renal): 0.0345 µM
GI50 (OVCAR-3 ovarian): 0.0142 µM
TGI (OVCAR-3 ovarian): 0.0534 µM

Nc1ncnc2c1ncn2C1OC(F)(COS(N)(=O)=O)C(O)C1O (stereo not drawn)
GI50 (A498 renal): > 100 µM
TGI (A498 renal): > 100 µM
GI50 (IGROV1 ovarian): > 100 µM
TGI (IGROV1 ovarian): > 100 µM
GI50 (SNB-75 CNS): > 100 µM
TGI (SNB-75 CNS): > 100 µM
GI50 (RPMI-8226 leukemia): > 100 µM
TGI (RPMI-8226 leukemia): > 100 µM
GI50 (SK-MEL-5 melanoma): > 100 µM
TGI (SK-MEL-5 melanoma): > 100 µM
GI50 (SK-MEL-28 melanoma): > 100 µM
TGI (SK-MEL-28 melanoma): > 100 µM
GI50 (DU-145 prostate): > 100 µM
TGI (DU-145 prostate): > 100 µM
GI50 (786-0 renal): > 100 µM
TGI (786-0 renal): > 100 µM
GI50 (ACHN renal): > 100 µM
TGI (ACHN renal): > 100 µM
GI50 (OVCAR-3 ovarian): > 100 µM
TGI (OVCAR-3 ovarian): > 100 µM

Cc1ccc(-c2csc3ncnc(Nc4cccc(O)c4)c23)cc1
GI50 (A498 renal): 30.8 µM
TGI (A498 renal): 66.5 µM
GI50 (IGROV1 ovarian): 17.8 µM
TGI (IGROV1 ovarian): 57.5 µM
GI50 (SNB-75 CNS): 39.6 µM
TGI (SNB-75 CNS): > 100 µM
GI50 (RPMI-8226 leukemia): 14.5 µM
TGI (RPMI-8226 leukemia): 37 µM
GI50 (SK-MEL-5 melanoma): 22.8 µM
TGI (SK-MEL-5 melanoma): 51.2 µM
GI50 (SK-MEL-28 melanoma): 43.1 µM
TGI (SK-MEL-28 melanoma): > 100 µM
GI50 (DU-145 prostate): 42.1 µM
TGI (DU-145 prostate): > 100 µM
GI50 (786-0 renal): 19.9 µM
TGI (786-0 renal): 42.8 µM
GI50 (OVCAR-3 ovarian): 22.3 µM
TGI (OVCAR-3 ovarian): 50.4 µM

Cc1ccc(S(=O)(=O)NC(=O)Nc2ncn[nH]2)cc1
TGI (A498 renal): > 100 µM
TGI (IGROV1 ovarian): > 100 µM
TGI (SNB-75 CNS): > 100 µM
TGI (RPMI-8226 leukemia): > 100 µM
TGI (SK-MEL-5 melanoma): > 100 µM
TGI (SK-MEL-28 melanoma): > 100 µM
TGI (DU-145 prostate): > 100 µM
TGI (786-0 renal): > 100 µM
TGI (ACHN renal): > 100 µM
TGI (OVCAR-3 ovarian): > 100 µM

O=C(Nc1ccc(Br)cc1)c1cc(Br)ccc1O
GI50 (A498 renal): 0.219 µM and 0.358 µM
TGI (A498 renal): 0.841 µM and 1.82 µM
GI50 (IGROV1 ovarian): 0.346 µM and 0.749 µM
TGI (IGROV1 ovarian): 22.8 µM and 17 µM
GI50 (SNB-75 CNS): 0.348 µM and 1.34 µM
TGI (SNB-75 CNS): 3.07 µM and 14.3 µM
GI50 (RPMI-8226 leukemia): 0.483 µM and 0.244 µM
TGI (RPMI-8226 leukemia): 0.758 µM
GI50 (SK-MEL-5 melanoma): 0.304 µM and 0.416 µM
TGI (SK-MEL-5 melanoma): 1.16 µM and 1.56 µM
GI50 (SK-MEL-28 melanoma): 0.314 µM and 1.44 µM
TGI (SK-MEL-28 melanoma): 2.17 µM and 5.14 µM
GI50 (DU-145 prostate): 0.539 µM and 2.03 µM
TGI (DU-145 prostate): > 47 µM and 14.1 µM
GI50 (786-0 renal): 0.504 µM and 1.4 µM
TGI (786-0 renal): 2.84 µM and 4.74 µM
GI50 (ACHN renal): 0.61 µM and 1.47 µM
TGI (ACHN renal): > 64 µM
GI50 (OVCAR-3 ovarian): 0.314 µM and 0.535 µM
TGI (OVCAR-3 ovarian): 7.81 µM and 7.14 µM

COc1ccc(C(=O)c2no[n+]([O-])c2C(=O)c2ccc(OC)cc2)cc1
GI50 (A498 renal): 15.6 µM
TGI (A498 renal): 29.2 µM
GI50 (IGROV1 ovarian): 2.3 µM
TGI (IGROV1 ovarian): 5.53 µM
GI50 (SNB-75 CNS): 3.03 µM
TGI (SNB-75 CNS): 9.26 µM
GI50 (RPMI-8226 leukemia): 2.06 µM
TGI (RPMI-8226 leukemia): 4.85 µM
GI50 (SK-MEL-5 melanoma): 12.6 µM
TGI (SK-MEL-5 melanoma): 25.1 µM
GI50 (SK-MEL-28 melanoma): 9.03 µM
TGI (SK-MEL-28 melanoma): 22.1 µM
GI50 (DU-145 prostate): 14.5 µM
TGI (DU-145 prostate): 27.6 µM
GI50 (786-0 renal): 2.62 µM
TGI (786-0 renal): 6.32 µM
GI50 (ACHN renal): 1.9 µM
TGI (ACHN renal): 3.4 µM
GI50 (OVCAR-3 ovarian): 1.87 µM
TGI (OVCAR-3 ovarian): 3.31 µM
